Data published in PubChem BioAssay AID2811 (Southern Research Specialized Biocontainment Screening …, 2010).
Active and inactive are the calls of the source. How the calls were made is not given here.

System: S. Typhi WT vs phoP-, polymyxin IC50 shift, OD600 24 h
Assay: polymyxin IC50 shift in S. Typhi, Salmonella typhi, set 2 (AID 2811)
Settings: stronger effect = lower value; for polymyxin IC50 shift difference (WT - phoP-) / polymyxin IC50 shift: at 150 µM
[1] = measured here: phoP- strain shift
[2] = measured here: wild-type strain shift

Structure (SMILES) | polymyxin IC50 (WT polymyxin IC50 at 150 uM) [µM] | polymyxin IC50 shift difference (WT - phoP-) | polymyxin IC50 shift [1] | polymyxin IC50 shift [2] | polymyxin IC50 (phoP- polymyxin IC50 at 150 uM) [µM]
O=C(Nc1ccc(Br)cc1)N1CCCN(Cc2ccccc2F)C1 | 7.08 | -5.49 (inactive) | 1.55 | -3.93 | 2.62
O=C1C2=C(Nc3ccccc3SC2c2ccc(I)cc2)c2ccccc21 (centres undefined) | 25.8 | -8.99 (inactive) | 1.81 | -7.18 | 0.04
COc1cccc(C2Sc3ccccc3NC3=C2C(=O)c2ccccc23)c1 (centres undefined) | 2.58 | -3.66 (inactive) | 4.99 | 1.33 | 11.2
CCn1cc(C(=O)O)c(=O)c2cc(F)c(N3CCN(C(=S)Nc4ccccc4C(F)(F)F)CC3)cc21 | 2.53 | -9.73 (inactive) | 9.16 | -0.568 | 2.76
COc1ccc(CNC(=S)Nc2ccncc2)cc1 | 5.14 | -2.86 (inactive) | -0.186 | -3.04 | 4.55
O=C1C2=C(Nc3ccccc3SC2c2ccsc2)c2ccccc21 (centres undefined) | 21.5 | -25.9 (inactive) | 6.12 | -19.7 | –
